What was measured:
Format in all cases: in vivo
[1] = test system: chemotherapy induced peripheral neuropathy; experiment: Example 1: human subject with chemotherapy induced peripheral neuropathy, Treatment-Induced Neuropathy Assessment Scale and reported symptoms; details: patient history before the disclosed treatment
Text: A patient complained of a tingling and burning sensation in their hands and feet that began shortly after they commenced chemotherapy. The patient had been previously diagnosed with primary peritoneal cervical cancer. While it was recommended that the patient undergo chemotherapy treatment for 18 weeks, the patient was unable to tolerate the side effects of the treatment after 11 weeks and ceased the treatment sessions. […] The patient experienced the same side effects again and sought help to alleviate their pain.
Upon physical examination by a practicing physician their gait was abnormal. Some of their symptoms included: • (a) The patient had poor coordination. In particular, when the patient would stop looking at their feet, they would lose all sense of proprioception (i.e., their sense of the relative position of the body and strength of effort being employed in movement) was lost. The patient thus used a cane as they had trouble with stability. • (b) The patient's sense of touch was poor. For example, the patient could not distinguish different textures as everything felt like silk to them. • (c) The patient's sense of temperature was also poor. […] • (d) There was an altered temperature sensation. They were hyper sensitized to slight changes in temperature. […] They could not write, hold a phone, pick up change, buckle themself in a seat, or dress themself. In the absence of a stimulus, the patient felt the tingling, burning sensations in their hands and feet. • (e) The patient's sensations would be exacerbated upon the introduction of a non-noxious stimulus.
Based on the above, the patient was diagnosed with chemotherapy induced peripheral neuropathy. […] Some of the attempted medications were PERCOSET, GABAPENTIN, TYLENOL, ADVIL, LIDOCAINE, and CAPSAICIN. Numerous other over-the-counter medications were tried. Other attempted treatments included acupuncture.
In an embodiment of the presently disclosed treatment, a formulation of topical doxycycline hyclate suspension at a concentration of 400 mg/g. The prescribed administration included applying the formulation to the patient's hands and feet 2-3 times daily as needed for the pain. Each dose was 2 ml per foot, per hand, and per leg. Over the course of at least 18 months, the patient used the formulation every day during the remainder of the patient's second regiment of chemotherapy. […] In particular, immediately after applying the topical doxycycline for the very first time, the patient found relief in the tingling, burning feeling in the hands and feet. […] They were able to pick up change.
Quantitatively, data was collected for at least 7 months on a “Treatment-Induced Neuropathy Assessment Scale” as shown in Table 1 below. The scale was proven in the scientific literature to be an effective tool to quantify change in symptoms presented by patients with peripheral neuropathy. The patient needed to assess their pain from a scale of 0 (non-existent) to 10 (unbearable pain). Throughout all the categories, the patient's pain went down. In some categories the pain was diminished altogether.

multiple sclerosis = experiment: Example 5: human subject with multiple sclerosis, leg pain triggered by AVONEX injection; details: patient history
Text: The following in vivo study of a human subject diagnosed with multiple sclerosis.
A patient presented with excruciating pain in their quadriceps that extended down to their calves. The pain was triggered by the weekly injection of AVONEX (interferon beta-1a) the patient was taking in order to manage their multiple sclerosis. They could not sleep due to the pain.
The patient then began a new treatment course to alleviate the pain. This treatment is a novel formulation of topical doxycycline hyclate suspension at a concentration of 400 mg/g. Each dose was 4 ml per leg and 2 ml per arm/hands. They applied it to the affected areas when they were feeling the pain. They also applied it at work when they would get pains from handling complex machines such as nail guns.

[2] = test system: osteoarthritis of the left knee; experiment: Example 2: human subject with osteoarthritis of the left knee; details: patient history; once relieved pain for 3 months
Text: The following in vivo study of a human subject diagnosed with osteoarthritis of the left knee.
A patient presented with complaints of left knee pain. The patient had been previously diagnosed with progressive osteoarthritis of the left knee. They had undergone two knee surgeries, but the pain came back within a few months. […] Their specialist said that the they were too young and too overweight for a full knee replacement surgery so they must rely on narcotic pain medications and hydrocortisone shots until they are a good candidate for the replacement surgery.
The patient then began the currently disclosed treatment course to alleviate the pain from their osteoarthritis. As already discussed, the currently disclosed treatment is a topical doxycycline hyclate suspension at a concentration of 400 mg/g. They applied it to the knee twice a day. Each dose was approximately 4 ml per knee spread topically over the knee. Preferably, an application covers the affected area with a thin layer of the suspension. One application was before bedtime and the other was in the morning before going to work. The patient has been using it every day for the past month.

idiopathic neuropathy = experiment: Example 7: human subject with idiopathic neuropathy; details: patient statement
Description: The following in vivo study of a human subject diagnosed with idiopathic neuropathy.
A patient presented with idiopathic ice-cold burning sensations on the lateral surface area of the right shin/calf. The pain began 6 years ago and has stayed constant.
The patient then began a new treatment course to alleviate the pain. This treatment is the presently disclosed novel formulation of topical doxycycline hyclate suspension at a concentration of 400 mg/g. Each dose was 4m1 to the affected right shin. They applied it topically to the affected areas when they were feeling the pain. They began applying it only once a day for 2 weeks before bed.

osteoarthritis = experiment: Example 6: human subject with osteoarthritis in both knees; details: patient history; side effects put them in a worse state
Description: The following in vivo study of a human subject diagnosed with osteoarthritis.
A patient presented with osteoarthritis in both knees due to a previous trauma years ago in their life. Their knees are in a constant state of pain and inflammation. They also have arthritis in the toe joints and shoulder.
The patient then began a new treatment course to alleviate the pain. This treatment is a novel formulation of topical doxycycline hyclate suspension at a concentration of 400 mg/g. Each dose was 2 ml per knee. They applied it to the affected areas when they were feeling the pain. By the next day the patient feels minimal pain. They apply 1.5 ml of the topical doxycycline suspension daily for a week at night. […] undergoes this treatment once every 4-6 months.

SMILES	effect of previously attempted medications on the patient's symptoms [1]	other results
NCC1(CC(=O)O)CCCCC1 [GABAPENTIN]	failed to address the patient's symptoms	
CC(C)Cc1ccc(C(C)C(=O)O)cc1 (stereo not shown) [MOTRIN, ibuprogen]		effect of previously taken medications on pain (multiple sclerosis): not as effective as they hoped
C[C@]12CCC(=O)C=C1CC[C@@H]1[C@@H]2[C@@H](O)C[C@@]2(C)[C@H]1CC[C@]2(O)C(=O)CO [hydrocortisone]		duration of pain relief after shots [2]: 3 weeks
CC(C)Cc1ccc(C(C)C(=O)O)cc1 (stereo not shown) [ADVIL, ibuprofen]	failed to address the patient's symptoms	
COc1cc(CNC(=O)CCCC/C=C/C(C)C)ccc1O [CAPSAICIN]	failed to address the patient's symptoms	
CC(C)Cc1ccc(C(C)C(=O)O)cc1 (stereo not shown) [Ibuprofen]		effect of previous medications on pain (idiopathic neuropathy): did not help
CCN(CC)CC(=O)Nc1c(C)cccc1C [LIDOCAINE]	failed to address the patient's symptoms	
CC(=O)Nc1ccc(O)cc1 [TYLENOL, acetaminophen]	failed to address the patient's symptoms	effect of previously taken medications on pain (multiple sclerosis): not as effective as they hoped; effect of previously tried medications on pain (osteoarthritis): did not help manage the pain

Source: patent US12005068B2, “Formulation including doxycycline hyclate and method for administering the same” (priority 2017, dated 2024)
